Laboratory results from PMC6826616, “Topical 2′-Hydroxyflavanone for Cutaneous Melanoma” (Cancers, 2019).
Read-outs that look alike come from different tables or passages of the source.

Columns and labels:
[1] = system: B16-F0 cells; assay: Western blot densitometry of whole-cell lysates, B16-F0; assay type: cell-based, mouse; details: 48 h
Procedure: B16-F0, […], and SK-MEL-24 cells were treated for 24 h with vehicle, 50 µM, and 100 µM 2HF. Cells were harvested and lysates prepared for Western blot using a radioimmunoprecipitation assay (RIPA) buffer with a protease (complete ULTRA) and phosphatase inhibitor (PhosSTOP) cocktail (Sigma-Aldrich, St. Louis, MO, USA). Total cell lysates (25 µg/lane) were loaded on 4–12% bis-tris gels, with MES gel running buffer. Proteins were transferred to nitrocellulose membrane, and nonspecific binding was minimized with 1× clear milk blocking buffer +0.1%TWEEN 20 (ThermoFisher Scientific, Waltham, MA, USA) for 1 h at room temperature. All primary antibodies were purchased from Santa Cruz Biotechnology except mouse monoclonal, TNF-α (Invitrogen), (1:1000), in 1× clear milk +0.1% TWEEN 20 overnight at 4 °C. Secondary antibody from Santa Cruz Biotech (1:2000) was incubated for 1 h at room temperature in 1× clear milk, 0.1% TWEEN 20.
Supplemental data for Fig. 2C. Caspase 9
Numbers below of each blot represent protein 1.0 1.2 0.5 ND ND ND ND ND ND band intensity ratios to adequate controls after Procaspase 3 […]
RAL BP- 1 and apoptosis enzymes in SK-Mel-24, B16F0 17kD Active caspase 3 […]
48h. Cells were plated in complete growth medium. After overnight, cells were treated with different doses of 2HF, and PARP-1 incubated for 48h. Total cell lysates (40 µg/lane) were […]
buffer. Proteins were transferred to nitrocellulose C-terminal cleaved membrane, nonspecific binding was done in 1X clear milk, PARP~89kDa
+0.1%T20 (Invitrogen) for 1h at room temperature. All primary antibodies were from (mouse monoclonal, 1.0 0.8 0.9 1.0 0.9 ND 1.0 1.1 ND Santacruze Biotechnology (1:1000), in 1X clear milk
+0.1%T20 overnight in 40C. Secondary antibody from N-terminal cleaved
Santacruze Biotech (1:2000) for 1h at room temperature in PARP~24kDa […]
Supplemental Figure 7 Supplemental data for Fig. 5.
B16F0 SK-Mel- 24 B16F10Numbers below of each blot represent protein band intensity ratios to adequate
TNF-α Full blots are presented in next 4 figures. […]
cells after treatment with 50, 100 µM 2HF for 48h.
Raf-1 Raf-1 Cells were plated in complete growth medium. After overnight, cells were treated with different doses of 2HF, […]
loaded on 4- 12% bis-tris gel, with 1X MES gel running p-MEK-1 p-MEK-1 buffer. Proteins were transferred to nitrocellulose membrane, nonspecific binding was done in 1X clear
All primary antibodies were from (mouse monoclonal, MEKK15 MEKK15 except TNF-α (American Hamster), Santacruze
1.0 0.9 0.1 ND ND ND overnight in 40C. Secondary antibody from Santacruze Biotech (1:2000) for 1h at room temperature in 1X clear […]

[2] = Single dose pharmacokinetic study of 2HF; assay type: in vivo, Sprague Dawley male rats; details: male SD rats
Procedure: Figure 7 Plasma concentration vs. time profile of 2HF in rats. Mean plasma concentration vs. time profile of 2HF following intravenous and oral administration of 2HF at 5 mg/kg and 10 mg/kg, respectively, to male SD rats (n = 3).
Pharmacokinetic studies of 2HF were performed by GVK Biosciences Pvt. Ltd., Hyderabad, India in Sprague Dawley male rats (~280 g). Rats were dosed either orally through gastric gavage needle of 10 mg/kg 2HF (0.5% Methyl cellulose + 0.5% Tween80) or intravenous 5 mg/kg 2HF (in 10% DMSO). Then, 200–300 µL blood was collected at each time point and plasma was separated; 50 µL plasma sample was deproteinized with 200 µL of acetonitrile followed by centrifugation at 2000× g for 5 min and supernatant was analyzed for 2HF by LC-MS/MS. Pharmacokinetic parameters were calculated for individual animals by a non-compartmental model with Phoenix software version 8.1 (CERTARA, Princeton, NJ, USA).

[3] = system: B16-F0 cells; assay: MTT cytotoxicity assay, B16-F0; assay type: cell-based; details: Mus musculus, B16F0
From the text: We studied the growth-inhibitory effects of 2HF on the B16-F0 and B16-F10 murine melanoma cell lines as well as on the SK-MEL-24 human melanoma cell line. B16-F10 and SK-MEL-24 have been shown in previous studies to be highly resistant to treatment and much more invasive than B16-F0 [32]. […] The absorption value measured upon reduction of the MTT dye by functional mitochondria is an indirect measure of cell number that cannot distinguish inhibited cell proliferation from apoptotic or necrotic cell death. By counting viable (trypan-blue dye-excluding) cells using a hemacytometer, we verified that 2HF did indeed cause cell death.
Figure 1 Mouse and human melanoma cell survival following 2′-hydroxyflavanone (2HF) treatment.
The IC50 of 2HF on B16-F0, B16-F10, and SK-MEL-24 cells was determined by MTT cytotoxicity assay. Cells were harvested and Trypan Blue dye exclusion test was used to determine the number of viable cells present in a cell suspension using a hemocytometer. The cell suspension was diluted to 5 × 10^4 cells/mL with Dulbecco’s Modified Eagle’s Medium (DMEM) complete medium and 5000 cells/well were plated in 96-well plates. After 24 h incubation at 37 °C, cells were treated with 2HF concentrations ranging from 0–200 µM (8 replicates per plate). After 48 or 72 h incubation, 40 µL of MTT (5 mg/mL) solution was added. After 4 h incubation, the plate was centrifuged at 700× g for 5 min and medium was aspirated completely. Then, 50 µL DMSO was added to each well to dissolve the purple precipitate on the rocking platform for about 15 min. The absorbance was then measured at 490 nm using a 96-well microplate reader (Spectramax Plus, Molecular Devices, Inc, San Jose, CA, USA).

- oral bioavailability ([2]; 10 mg/kg oral vs 5 mg/kg IV): Poor
- plasma concentrations orally compared with IV ([2]; 10 mg/kg oral vs 5 mg/kg IV): two log-order lower
- clearance ([2]; after either oral or IV administration): rapid clearance
Compound: O=C1CC(c2ccccc2O)Oc2ccccc21 (stereo not shown) [2HF, 2′-hydroxyflavanone]
- Active caspase 3 band intensity ratio to control (normalized against β-Actin) ([1]; B16F0, 50 µM 2HF): 0.9
- C-terminal cleaved PARP~89kDa band intensity ratio to control (normalized against β-Actin) ([1]; B16F0, 50 µM 2HF): 0.9
- MEKK15 band intensity ratio to control (normalized against β-Actin) ([1]; B16F0, 50 µM 2HF): 1.0
- N-terminal cleaved PARP~24kDa band intensity ratio to control (normalized against β-Actin) ([1]; B16F0, 50 µM 2HF): 0.9
- PARP-1 band intensity ratio to control (normalized against β-Actin) ([1]; B16F0, 50 µM 2HF): 0.9
- PKC α band intensity ratio to control (normalized against β-Actin) ([1]; B16F0, 50 µM 2HF): 0.6
- Procaspase 3 band intensity ratio to control (normalized against β-Actin) ([1]; B16F0, 50 µM 2HF): 1.0
- RAL BP-1 band intensity ratio to control (normalized against β-Actin) ([1]; B16F0, 50 µM 2HF): 0.9
- Raf-1 band intensity ratio to control (normalized against β-Actin) ([1]; B16F0, 50 µM 2HF): 0.2
- TNF-α band intensity ratio to control (normalized against β-Actin) ([1]; B16F0, 50 µM 2HF): 0.4
- p-MEK-1 band intensity ratio to control (normalized against β-Actin) ([1]; B16F0, 50 µM 2HF): 0.8
- p-PDGFR-β band intensity ratio to control (normalized against β-Actin) ([1]; B16F0, 50 µM 2HF): 0.3
- Active caspase 3 band intensity ratio to control (normalized against β-Actin) ([1]; B16F0, 100 µM 2HF): 0.1
- MEKK15 band intensity ratio to control (normalized against β-Actin) ([1]; B16F0, 100 µM 2HF): 4.7
- N-terminal cleaved PARP~24kDa band intensity ratio to control (normalized against β-Actin) ([1]; B16F0, 100 µM 2HF): 0.1
- PARP-1 band intensity ratio to control (normalized against β-Actin) ([1]; B16F0, 100 µM 2HF): 0.8
- PKC α band intensity ratio to control (normalized against β-Actin) ([1]; B16F0, 100 µM 2HF): 0.2
- Procaspase 3 band intensity ratio to control (normalized against β-Actin) ([1]; B16F0, 100 µM 2HF): 0.5
- RAL BP-1 band intensity ratio to control (normalized against β-Actin) ([1]; B16F0, 100 µM 2HF): 0.3
- p-MEK-1 band intensity ratio to control (normalized against β-Actin) ([1]; B16F0, 100 µM 2HF): 0.8
- IC50 ([3]; MTT, 72 h, mean ±SD, n = 5, read-out: IC50 at 72 h (growth/survival)): 38 ± 4 µM
- IC50 ([3]; Table 1, agent alone, read-out: IC50): 38.6 ± 1.61 µM
